These results are taken from patent US20240208992A1, “MACROCYCLES AS CFTR MODULATORS” (Idorsia Pharmaceuticals Ltd, priority 2021, published 2024).

pEC50: −log10 of the molar value.

In the assay the target is human F508del-CFTR (Homo sapiens, UniProt P13569, DEL508-508). As to the kind of experiment: F508del-CFTR cell surface expression (corrector activity), DiscoveRx ß-galactosidase complementation chemiluminescence assay in recombinant U2OS cell line.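 For all read-outs here: U2OS cells co-expressing ProLink-tagged F508del-CFTR and a membrane-anchored enzyme acceptor, where more surface CFTR restores β-galactosidase activity measured by chemiluminescence.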 Conditions: U2OS cell line, 16h compound incubation; for pEC50: EC50, F508del-CFTR cell surface expression, geomean values; for Emax: U2OS, in relation to the Emax of the corrector lumacaftor (=100%), arithmetic mean values.
Sequence of human F508del-CFTR (P13569 with tags, fused parts or gaps DEL508-508): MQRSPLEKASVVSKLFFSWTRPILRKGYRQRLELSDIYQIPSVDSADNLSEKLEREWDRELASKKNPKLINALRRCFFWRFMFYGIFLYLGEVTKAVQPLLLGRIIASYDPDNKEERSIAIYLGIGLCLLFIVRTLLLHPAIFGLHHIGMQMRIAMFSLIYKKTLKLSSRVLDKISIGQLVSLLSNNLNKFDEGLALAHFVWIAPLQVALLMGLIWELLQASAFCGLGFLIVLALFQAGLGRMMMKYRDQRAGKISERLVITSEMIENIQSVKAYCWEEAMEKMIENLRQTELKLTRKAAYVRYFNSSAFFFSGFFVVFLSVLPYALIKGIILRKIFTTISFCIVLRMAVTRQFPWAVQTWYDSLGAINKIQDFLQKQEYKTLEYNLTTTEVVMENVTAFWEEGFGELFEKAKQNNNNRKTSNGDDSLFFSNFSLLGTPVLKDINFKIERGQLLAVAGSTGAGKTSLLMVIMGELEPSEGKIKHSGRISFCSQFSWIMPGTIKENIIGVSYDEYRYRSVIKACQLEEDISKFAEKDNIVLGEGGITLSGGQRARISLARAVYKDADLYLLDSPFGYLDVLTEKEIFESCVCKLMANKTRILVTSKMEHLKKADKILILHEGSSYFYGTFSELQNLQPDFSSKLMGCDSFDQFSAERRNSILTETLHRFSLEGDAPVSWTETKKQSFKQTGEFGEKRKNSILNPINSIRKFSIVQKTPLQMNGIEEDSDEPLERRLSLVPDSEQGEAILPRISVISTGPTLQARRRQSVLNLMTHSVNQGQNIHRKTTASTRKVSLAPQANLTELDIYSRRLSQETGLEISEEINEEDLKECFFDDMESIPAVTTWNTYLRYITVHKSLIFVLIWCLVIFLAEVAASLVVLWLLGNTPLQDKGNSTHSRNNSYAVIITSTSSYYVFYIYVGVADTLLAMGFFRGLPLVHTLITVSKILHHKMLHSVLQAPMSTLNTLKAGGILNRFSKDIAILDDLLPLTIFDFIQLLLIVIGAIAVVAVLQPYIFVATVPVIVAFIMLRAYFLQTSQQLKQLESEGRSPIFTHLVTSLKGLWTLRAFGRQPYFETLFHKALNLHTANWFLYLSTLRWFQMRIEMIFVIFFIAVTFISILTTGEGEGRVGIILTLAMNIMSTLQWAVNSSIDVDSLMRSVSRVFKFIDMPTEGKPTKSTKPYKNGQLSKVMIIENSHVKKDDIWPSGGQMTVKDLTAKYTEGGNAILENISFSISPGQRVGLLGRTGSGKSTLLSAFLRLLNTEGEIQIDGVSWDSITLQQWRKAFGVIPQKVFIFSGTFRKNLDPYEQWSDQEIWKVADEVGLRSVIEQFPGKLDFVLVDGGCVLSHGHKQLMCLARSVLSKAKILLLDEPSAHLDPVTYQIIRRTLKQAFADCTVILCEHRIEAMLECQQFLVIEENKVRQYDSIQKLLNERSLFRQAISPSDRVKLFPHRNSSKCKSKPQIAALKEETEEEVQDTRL

`CC(C)C[C@H]1C(=O)N(CCC(C)(C)C)CC(=O)N[C@H](Cc2ccccc2)COc2cc3c(cc2C(=O)N[C@H](C(=O)NCCc2ccc4c(c2)OCO4)CC(=O)N1C)OCO3` (racemic) [Example 1, (7R,13S,17RS)-N-(2-(benzo[d][1,3]dioxol-5-yl)ethyl)-7-benzyl-11-(3,3-dimethylbutyl)-13-isobutyl-14-methyl-9,12,15,19-tetraoxo-6,7,8,9,10,11,12,13,14,15,16,17,18,19-tetradecahydro-[1,3]dioxolo[4′,5′:4,5]benzo[1,2-p][1]oxa[4,7,10,14]tetraazacycloheptadecine-17-carboxamide]: the pEC50 was 7.25 and the Emax was 105%.
On the same counts, the results for `CC(C)C[C@H]1C(=O)N(CCc2ccccc2)CC(=O)N[C@H](Cc2ccccc2)COc2cc3c(cc2C(=O)N[C@H](C(=O)NCCc2ccc4c(c2)OCO4)CC(=O)N1C)OCO3` (racemic) [Example 5, (7R,13S,17RS)-N-(2-(benzo[d][1,3]dioxol-5-yl)ethyl)-7-benzyl-13-isobutyl-14-methyl-9,12,15,19-tetraoxo-11-phenethyl-6,7,8,9,10,11,12,13,14,15,16,17,18,19-tetradecahydro-[1,3]dioxolo[4′,5′:4,5]benzo[1,2-p][1]oxa[4,7,10,14]tetraazacycloheptadecine-17-carboxamide] are 6.43 and 109%.
With `CC(C)C[C@H]1C(=O)N(CCCOCc2ccccc2)CC(=O)N[C@H](Cc2ccccc2)COc2cc3c(cc2C(=O)N[C@H](C(=O)NCCc2ccc4c(c2)OCO4)CC(=O)N1C)OCO3` (racemic) [Example 6, (7R,13S,17RS)-N-(2-(benzo[d][1,3]dioxol-5-yl)ethyl)-7-benzyl-11-(3-(benzyloxy)propyl)-13-isobutyl-14-methyl-9,12,15,19-tetraoxo-6,7,8,9,10,11,12,13,14,15,16,17,18,19-tetradecahydro-[1,3]dioxolo[4′,5′:4,5]benzo[1,2-p][1]oxa[4,7,10,14]tetraazacycloheptadecine-17-carboxamide], the negative-log EC50 (pEC50) is 6.38 and the Emax stood at 112%.
For `COc1cc2c(cc1OC)C(=O)N[C@H](C(=O)NCCc1ccc3c(c1)OCO3)CC(=O)N(C)[C@@H](CC1CC1)C(=O)N(CCC1CCCCC1)CC(=O)N[C@H](Cc1ccccc1)CO2` (racemic) [Example 9, (3R,9S,13RS)-N-(2-(benzo[d][1,3]dioxol-5-yl)ethyl)-3-benzyl-7-(2-cyclohexylethyl)-9-(cyclopropylmethyl)-17,18-dimethoxy-10-methyl-5,8,11,15-tetraoxo-2,3,4,5,6,7,8,9,10,11,12,13,14,15-tetradecahydrobenzo[p][1]oxa[4,7,10,14]tetraazacycloheptadecine-13-carboxamide], in that order: 6.44 and 130%.
On the same counts, the results for `COc1cc2c(cc1OC)C(=O)N[C@H](C(=O)NCCc1ccc3c(c1)OCO3)CC(=O)N(C)[C@@H](CC1CCCC1)C(=O)N(CCC1CCCCC1)CC(=O)N[C@H](Cc1ccccc1)CO2` (racemic) [Example 10, (3R,9S,13RS)-N-(2-(benzo[d][1,3]dioxol-5-yl)ethyl)-3-benzyl-7-(2-cyclohexylethyl)-9-(cyclopentylmethyl)-17,18-dimethoxy-10-methyl-5,8,11,15-tetraoxo-2,3,4,5,6,7,8,9,10,11,12,13,14,15-tetradecahydrobenzo[p][1]oxa[4,7,10,14]tetraazacycloheptadecine-13-carboxamide] are 7.09 and 123%.
For the molecule `COc1cccc2c1C(=O)N[C@H](C(=O)NCCc1ccc3c(c1)CCCO3)CC(=O)N(C)[C@@H](CC(C)C)C(=O)N(CCC1CCCCC1)CC(=O)N[C@H](Cc1ccccc1)CO2` (racemic) [Example 11, (3R,9S,13RS)-3-benzyl-N-(2-(chroman-6-yl)ethyl)-7-(2-cyclohexylethyl)-9-isobutyl-16-methoxy-10-methyl-5,8,11,15-tetraoxo-2,3,4,5,6,7,8,9,10,11,12,13,14,15-tetradecahydrobenzo[p][1]oxa[4,7,10,14]tetraazacycloheptadecine-13-carboxamide], the Emax stood at 132%.
The same measure, in the same setting: the same measure for `COc1cccc2c1C(=O)N[C@H](C(=O)NCCc1ccc3c(c1)OCCCO3)CC(=O)N(C)[C@@H](CC(C)C)C(=O)N(CCC1CCCCC1)CC(=O)N[C@H](Cc1ccccc1)CO2` (racemic) [Example 12, (3R,9S,13RS)-3-benzyl-7-(2-cyclohexylethyl)-N-(2-(3,4-dihydro-2H-benzo[b][1,4]dioxepin-7-yl)ethyl)-9-isobutyl-16-methoxy-10-methyl-5,8,11,15-tetraoxo-2,3,4,5,6,7,8,9,10,11,12,13,14,15-tetradecahydrobenzo[p][1]oxa[4,7,10,14]tetraazacycloheptadecine-13-carboxamide]: 184%.
In the case of `COc1cccc2c1C(=O)N[C@H](C(=O)NCCc1ccc3c(c1)COC3)CC(=O)N(C)[C@@H](CC(C)C)C(=O)N(CCC1CCCCC1)CC(=O)N[C@H](Cc1ccccc1)CO2` (racemic) [Example 13, (3R,9S,13RS)-3-benzyl-7-(2-cyclohexylethyl)-N-(2-(1,3-dihydroisobenzofuran-5-yl)ethyl)-9-isobutyl-16-methoxy-10-methyl-5,8,11,15-tetraoxo-2,3,4,5,6,7,8,9,10,11,12,13,14,15-tetradecahydrobenzo[p][1]oxa[4,7,10,14]tetraazacycloheptadecine-13-carboxamide], the pEC50 was 6.57 and the Emax is 153%.
For `COc1cccc2c1C(=O)N[C@H](C(=O)NCCc1ccc3ccoc3c1)CC(=O)N(C)[C@@H](CC(C)C)C(=O)N(CCC1CCCCC1)CC(=O)N[C@H](Cc1ccccc1)CO2` (racemic) [Example 14, (3R,9S,13RS)-N-(2-(benzofuran-6-yl)ethyl)-3-benzyl-7-(2-cyclohexylethyl)-9-isobutyl-16-methoxy-10-methyl-5,8,11,15-tetraoxo-2,3,4,5,6,7,8,9,10,11,12,13,14,15-tetradecahydrobenzo[p][1]oxa[4,7,10,14]tetraazacycloheptadecine-13-carboxamide], in that order: 6.80 and 185%.
As to `COc1cccc2c1C(=O)N[C@H](C(=O)NCCc1ccc3c(c1)OCC3)CC(=O)N(C)[C@@H](CC(C)C)C(=O)N(CCC1CCCCC1)CC(=O)N[C@H](Cc1ccccc1)CO2` (racemic) [Example 15, (3R,9S,13RS)-3-benzyl-7-(2-cyclohexylethyl)-N-(2-(2,3-dihydrobenzofuran-6-yl)ethyl)-9-isobutyl-16-methoxy-10-methyl-5,8,11,15-tetraoxo-2,3,4,5,6,7,8,9,10,11,12,13,14,15-tetradecahydrobenzo[p][1]oxa[4,7,10,14]tetraazacycloheptadecine-13-carboxamide], the Emax was 240%.
Same read-out and setting: the same measure for `COc1cccc2c1C(=O)N[C@H](C(=O)NCCc1nc3ccccc3o1)CC(=O)N(C)[C@@H](CC(C)C)C(=O)N(CCC1CCCCC1)CC(=O)N[C@H](Cc1ccccc1)CO2` (racemic) [Example 16, (3R,9S,13RS)-N-(2-(benzo[d]oxazol-2-yl)ethyl)-3-benzyl-7-(2-cyclohexylethyl)-9-isobutyl-16-methoxy-10-methyl-5,8,11,15-tetraoxo-2,3,4,5,6,7,8,9,10,11,12,13,14,15-tetradecahydrobenzo[p][1]oxa[4,7,10,14]tetraazacycloheptadecine-13-carboxamide]: 137%.
